The assay concerns the target TAK1/TAB1 (Homo sapiens, UniProt O43318). In words: Inhibition of kinase tracer-236 binding to full length recombinant human His-tagged TAK1-TAB1 expressed in baculovirus by FRET assay.
TAK1/TAB1, sequence (Q15750 whole entry): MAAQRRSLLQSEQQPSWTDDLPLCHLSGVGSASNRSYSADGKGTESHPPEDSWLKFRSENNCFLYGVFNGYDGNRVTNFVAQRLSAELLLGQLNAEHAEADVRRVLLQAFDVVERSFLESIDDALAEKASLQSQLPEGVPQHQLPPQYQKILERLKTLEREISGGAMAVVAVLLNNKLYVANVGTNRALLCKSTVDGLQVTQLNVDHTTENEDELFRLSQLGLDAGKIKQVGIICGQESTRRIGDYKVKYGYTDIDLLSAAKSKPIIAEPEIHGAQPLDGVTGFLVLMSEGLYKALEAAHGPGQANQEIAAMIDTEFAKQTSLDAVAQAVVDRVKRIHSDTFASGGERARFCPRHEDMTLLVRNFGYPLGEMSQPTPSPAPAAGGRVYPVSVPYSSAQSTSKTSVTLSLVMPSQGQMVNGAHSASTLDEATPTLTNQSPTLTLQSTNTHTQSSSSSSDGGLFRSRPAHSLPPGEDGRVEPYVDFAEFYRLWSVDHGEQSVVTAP
TAK1/TAB1, sequence (O43318 whole entry): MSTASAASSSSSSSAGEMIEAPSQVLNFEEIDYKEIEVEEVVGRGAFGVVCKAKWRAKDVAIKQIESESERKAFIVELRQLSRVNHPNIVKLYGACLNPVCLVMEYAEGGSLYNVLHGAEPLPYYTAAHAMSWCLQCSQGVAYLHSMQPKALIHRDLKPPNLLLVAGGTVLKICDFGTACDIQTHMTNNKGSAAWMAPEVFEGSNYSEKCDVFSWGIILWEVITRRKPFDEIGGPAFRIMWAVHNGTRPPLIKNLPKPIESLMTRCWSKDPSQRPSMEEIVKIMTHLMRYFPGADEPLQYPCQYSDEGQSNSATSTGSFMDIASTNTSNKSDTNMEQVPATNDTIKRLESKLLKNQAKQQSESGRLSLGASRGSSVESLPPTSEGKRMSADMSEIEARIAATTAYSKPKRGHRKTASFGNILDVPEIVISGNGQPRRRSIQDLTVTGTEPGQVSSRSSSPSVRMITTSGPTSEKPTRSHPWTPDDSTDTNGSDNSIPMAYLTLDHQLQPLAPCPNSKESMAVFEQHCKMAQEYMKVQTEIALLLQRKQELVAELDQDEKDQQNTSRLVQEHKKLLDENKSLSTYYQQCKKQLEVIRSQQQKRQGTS
As a reminder, the IC50 is the concentration that gives 50% inhibition. As for `CC(=O)c1c[nH]c2ncnc(OCC(C)C)c12`, the IC50 was determined as 1700 nM. The same measure for `N#C/C=C/c1c[nH]c2ncnc(OCc3ccccc3)c12`: 330 nM; for `CC(C)COc1ncnc2[nH]cc(C#CC(N)=O)c12`: 7 nM. The same measure for `COC(=O)/C(C)=C/c1c[nH]c2ncnc(OCC(C)C)c12`: 430 nM; for `NC(=O)/C=C/c1c[nH]c2ncnc(OCc3cccc(F)c3)c12`: 51 nM.

(Values after ChEMBL document CHEMBL3879912, “4-alkoxy/aralkoxy-5-substituted-pyrrolopyrimidine compounds as TAK1 inhibitors in disease treatment” (2014).)
